Data reported in patent US9066861B2 (priority 2009, dated 2015).
One block for each compound: values may come before it.

Assay: Assay (%) test of APIs in cream, stability study, HPLC method
Assay type: physicochemical
Protocol: The stability of the product is confirmed by the stability studies performed for 3/6 months as per ICH guidelines.
APIs-stability experiments were carried out (see tables 3-20) using several products that are representative of the present invention. Tests were carried out to observe (or measure as appropriate) the physical appearance of the product, the pH value and assay of the APIs over a period of time. […] Betamethasone Valerate—0.12% (w/w) • ii. Fluticasone Propionate—0.05% (w/w) • iii. Mometasone Furoate—0.1% (w/w) • iv. Dexamethasone Acetate—0.1% (w/w) • v. Hydrocortisone Acetate—1.0% (w/w) • vi. Clobetasol Propionate—0.05% (w/w) • vii. Beclomethasone Dipropionate—0.025% (w/w) • viii. Betamethasone Dipropionate—0.05% (w/w) wherein all percentages are with respect to the final formulation.
The product used for the Stability Studies tests contained approximately 10% extra APIs (overages).

Compound: CCC(=O)O[C@]1(C(=O)SCF)[C@H](C)C[C@H]2[C@@H]3C[C@H](F)C4=CC(=O)C=C[C@]4(C)[C@@]3(F)[C@@H](O)C[C@@]21C [Fluticasone Propionate]
- Assay (%) (in cream Batch No. SFC-01, 25° C. 60% RH, 1st Month): 108.54%
- Assay (%) (in cream Batch No. SFC-01, 25° C. 60% RH, 2nd Month): 108.42%
- Assay (%) (in cream Batch No. SFC-01, 25° C. 60% RH, 3rd Month): 108.21%
- Assay (%) (in cream Batch No. SFC-01, 25° C. 60% RH, 6th Month): 108.10%
- Assay (%) (in cream Batch No. SFC-01, 30° C. 65% RH, 1st Month): 108.48%
- Assay (%) (in cream Batch No. SFC-01, 30° C. 65% RH, 2nd Month): 108.42%
- Assay (%) (in cream Batch No. SFC-01, 30° C. 65% RH, 3rd Month): 108.20%
- Assay (%) (in cream Batch No. SFC-01, 30° C. 65% RH, 6th Month): 108.11%
- Assay (%) (in cream Batch No. SFC-01, 40° C. 75% RH, 1st Month): 108.51%
- Assay (%) (in cream Batch No. SFC-01, 40° C. 75% RH, 2nd Month): 108.32%
- Assay (%) (in cream Batch No. SFC-01, 40° C. 75% RH, 3rd Month): 108.11%
- Assay (%) (in cream Batch No. SFC-01, 40° C. 75% RH, 6th Month): 108.08%
- Assay (%) (in cream Batch No. SFC-01, Freezthaw, 1st Month): 108.15%
- Assay (%) (in cream Batch No. SFC-01, Initial): 108.56%
- Assay (%) (in cream Batch No. SFC-01, Temperature cycling, 1st Month): 108.51%

Compound: CC(=O)OCC(=O)[C@@]1(O)CC[C@H]2[C@@H]3CCC4=CC(=O)CC[C@]4(C)[C@H]3[C@@H](O)C[C@@]21C [Hydrocortisone Acetate]
- Assay (%) (in cream Batch No. HAS-01, 25° C. 60% RH, 1st Month): 107.14%
- Assay (%) (in cream Batch No. HAS-01, 25° C. 60% RH, 2nd Month): 107.11%
- Assay (%) (in cream Batch No. HAS-01, 25° C. 60% RH, 3rd Month): 107.10%
- Assay (%) (in cream Batch No. HAS-01, 30° C. 65% RH, 1st Month): 107.14%
- Assay (%) (in cream Batch No. HAS-01, 30° C. 65% RH, 2nd Month): 107.12%
- Assay (%) (in cream Batch No. HAS-01, 30° C. 65% RH, 3rd Month): 107.09%
- Assay (%) (in cream Batch No. HAS-01, 40° C. 75% RH, 1st Month): 107.14%
- Assay (%) (in cream Batch No. HAS-01, 40° C. 75% RH, 2nd Month): 107.12%
- Assay (%) (in cream Batch No. HAS-01, 40° C. 75% RH, 3rd Month): 107.05%
- Assay (%) (in cream Batch No. HAS-01, Freezthaw, 1st Month): 107.14%
- Assay (%) (in cream Batch No. HAS-01, Initial): 107.15%
- Assay (%) (in cream Batch No. HAS-01, Temperature cycling, 1st Month): 107.11%

Compound: C[C@@H]1C[C@H]2[C@@H]3CCC4=CC(=O)C=C[C@]4(C)[C@@]3(Cl)[C@@H](O)C[C@]2(C)[C@@]1(OC(=O)c1ccco1)C(=O)CCl [Mometasone Furoate]
- Assay (%) (in cream Batch No. SFM-01, 25° C. 60% RH, 1st Month): 108.54%
- Assay (%) (in cream Batch No. SFM-01, 25° C. 60% RH, 2nd Month): 108.42%
- Assay (%) (in cream Batch No. SFM-01, 25° C. 60% RH, 3rd Month): 108.21%
- Assay (%) (in cream Batch No. SFM-01, 25° C. 60% RH, 6th Month): 107.82%
- Assay (%) (in cream Batch No. SFM-01, 30° C. 65% RH, 1st Month): 108.48%
- Assay (%) (in cream Batch No. SFM-01, 30° C. 65% RH, 2nd Month): 108.42%
- Assay (%) (in cream Batch No. SFM-01, 30° C. 65% RH, 3rd Month): 108.20%
- Assay (%) (in cream Batch No. SFM-01, 30° C. 65% RH, 6th Month): 107.75%
- Assay (%) (in cream Batch No. SFM-01, 40° C. 75% RH, 1st Month): 108.51%
- Assay (%) (in cream Batch No. SFM-01, 40° C. 75% RH, 2nd Month): 108.32%
- Assay (%) (in cream Batch No. SFM-01, 40° C. 75% RH, 3rd Month): 108.11%
- Assay (%) (in cream Batch No. SFM-01, 40° C. 75% RH, 6th Month): 107.88%
- Assay (%) (in cream Batch No. SFM-01, Freezthaw, 1st Month): 108.15%
- Assay (%) (in cream Batch No. SFM-01, Initial): 108.56%
- Assay (%) (in cream Batch No. SFM-01, Temperature cycling, 1st Month): 108.51%

Further lines, results first:

- Assay (%) (in cream Batch No. SFB-01, 25° C. 60% RH, 1st Month): 108.05%
- Assay (%) (in cream Batch No. SFB-01, 25° C. 60% RH, 2nd Month): 108.00%
- Assay (%) (in cream Batch No. SFB-01, 25° C. 60% RH, 3rd Month): 107.90%
- Assay (%) (in cream Batch No. SFB-01, 30° C. 65% RH, 1st Month): 108.11%
- Assay (%) (in cream Batch No. SFB-01, 30° C. 65% RH, 2nd Month): 107.96%
- Assay (%) (in cream Batch No. SFB-01, 30° C. 65% RH, 3rd Month): 107.68%
- Assay (%) (in cream Batch No. SFB-01, 40° C. 75% RH, 1st Month): 108.04%
- Assay (%) (in cream Batch No. SFB-01, 40° C. 75% RH, 2nd Month): 107.98%
- Assay (%) (in cream Batch No. SFB-01, 40° C. 75% RH, 3rd Month): 107.88%
- Assay (%) (in cream Batch No. SFB-01, Freezthaw, 1st Month): 107.58%
- Assay (%) (in cream Batch No. SFB-01, Initial): 108.12%
- Assay (%) (in cream Batch No. SFB-01, Temperature cycling, 1st Month): 107.68%
Compound: CCC(=O)OCC(=O)[C@@]1(OC(=O)CC)[C@@H](C)C[C@H]2[C@@H]3CCC4=CC(=O)C=C[C@]4(C)[C@@]3(Cl)[C@@H](O)C[C@@]21C [Beclomethasone dipropionate]

- Assay (%) (in cream Batch No. SBV-01, 25° C. 60% RH, 1st Month): 109.54%
- Assay (%) (in cream Batch No. SBV-01, 25° C. 60% RH, 2nd Month): 109.42%
- Assay (%) (in cream Batch No. SBV-01, 25° C. 60% RH, 3rd Month): 109.21%
- Assay (%) (in cream Batch No. SBV-01, 30° C. 65% RH, 1st Month): 109.48%
- Assay (%) (in cream Batch No. SBV-01, 30° C. 65% RH, 2nd Month): 109.42%
- Assay (%) (in cream Batch No. SBV-01, 30° C. 65% RH, 3rd Month): 109.20%
- Assay (%) (in cream Batch No. SBV-01, 40° C. 75% RH, 1st Month): 109.51%
- Assay (%) (in cream Batch No. SBV-01, 40° C. 75% RH, 2nd Month): 109.32%
- Assay (%) (in cream Batch No. SBV-01, 40° C. 75% RH, 3rd Month): 109.11%
- Assay (%) (in cream Batch No. SBV-01, Freezthaw, 1st Month): 108.25%
- Assay (%) (in cream Batch No. SBV-01, Initial): 109.56%
- Assay (%) (in cream Batch No. SBV-01, Temperature cycling, 1st Month): 109.51%
Compound: CCCCC(=O)O[C@]1(C(=O)CO)[C@@H](C)C[C@H]2[C@@H]3CCC4=CC(=O)C=C[C@]4(C)[C@@]3(F)[C@@H](O)C[C@@]21C [Betamethasone Valerate]

- Assay (%) (in cream Batch No. SPC-01, 25° C. 60% RH, 1st Month): 107.40%
- Assay (%) (in cream Batch No. SPC-01, 25° C. 60% RH, 2nd Month): 107.34%
- Assay (%) (in cream Batch No. SPC-01, 25° C. 60% RH, 3rd Month): 107.30%
- Assay (%) (in cream Batch No. SPC-01, 25° C. 60% RH, 6th Month): 107.24%
- Assay (%) (in cream Batch No. SPC-01, 30° C. 65% RH, 1st Month): 107.38%
- Assay (%) (in cream Batch No. SPC-01, 30° C. 65% RH, 2nd Month): 107.32%
- Assay (%) (in cream Batch No. SPC-01, 30° C. 65% RH, 3rd Month): 107.29%
- Assay (%) (in cream Batch No. SPC-01, 30° C. 65% RH, 6th Month): 107.22%
- Assay (%) (in cream Batch No. SPC-01, 40° C. 75% RH, 1st Month): 107.34%
- Assay (%) (in cream Batch No. SPC-01, 40° C. 75% RH, 2nd Month): 107.22%
- Assay (%) (in cream Batch No. SPC-01, 40° C. 75% RH, 3rd Month): 107.15%
- Assay (%) (in cream Batch No. SPC-01, 40° C. 75% RH, 6th Month): 107.10%
- Assay (%) (in cream Batch No. SPC-01, Freezthaw, 1st Month): 107.11%
- Assay (%) (in cream Batch No. SPC-01, Initial): 107.41%
- Assay (%) (in cream Batch No. SPC-01, Temperature cycling, 1st Month): 107.21%
Compound: CCC(=O)O[C@]1(C(=O)CCl)[C@@H](C)C[C@H]2[C@@H]3CCC4=CC(=O)C=C[C@]4(C)[C@@]3(F)[C@@H](O)C[C@@]21C [Clobetasol Propionate]
